The text below walks through data of patent US9451775B2, “Heterocyclic compounds as pesticides” (Bayer Intellectual Property GmbH, priority 2008, dated 2016).

Structures are written as SMILES.

One series is described as follows: logP determination by HPLC (formic acid method). The class given is physicochemical. As to conditions: pH 3.4; values given in the preparation examples; formic acid method; read-out: logP (HCOOH). As for the experimental part: 1) Description of the method for determining the logP values (formic acid method)
The logP values given in the table were determined in accordance with EEC Directive 79/831 Annex V.A8 by HPLC (High Performance Liquid Chromatography) on a reversed-phase column (C18). Temperature: 55° C.
Mobile phases for the determination in the acidic range (pH 3.4):
Mobile phase A: Acetonitrile+1 ml of formic acid/litre. Mobile phase B: water+0.9 ml of formic acid/litre.
Gradient: from 10% mobile phase A/90% mobile phase B to 95% mobile phase A/5% mobile phase B in 4.25 min.
Calibration was carried out using unbranched alkan-2-ones (having 3 to 16 carbon atoms) with known logP values (determination of the logP values by the retention times using linear interpolation between two successive alkanones). The lambda max values were determined in the maxima of the chromatographic signals using the UV spectra from 200 nm to 400 nm.
Consider `COC(=O)c1cc(-c2cccnc2)nn1C` (single isomer, unassigned) [drawing 76 isomer 1], for which the chromatographic logP came to 0.84. Consider `COC(=O)c1cc(-c2cccnc2)n(C)n1` (single isomer, unassigned) [drawing 76 isomer 2], for which the chromatographic logP worked out at 0.77.

Staying with this series, now noted: reversed-phase HPLC column (C18), pH 3.4, HPLC on reversed-phase column (C18), acidic range (pH 3.4), 55° C.; read-out: logP (HCOOH).
For the molecule `Cc1nc(-c2cccnc2)sc1-c1nc(-c2ccccn2)cs1` [compound 172], the chromatographic logP is 2.53.

As for `Cc1cccc(-c2csc(-c3sc(-c4cccnc4)nc3C)n2)n1` [compound 173], the chromatographic logP was 2.66. For `CNc1nc(-c2sc(-c3cccnc3)nc2C)cs1` [compound 174], the chromatographic logP came to 1.76. Turning to `Cc1nc(-c2cccnc2)sc1-c1nc(C(=O)NCC(F)(F)F)cs1` [compound 175], the chromatographic logP amounted to 2.23. With `COc1cc(OC)nc(-c2nc(-c3sc(-c4cccnc4)nc3C)cs2)n1` [compound 176], the chromatographic logP turned out to be 3.21. Take `Cc1nc(-c2cccnc2)sc1-c1csc(-c2cccnc2)n1` [compound 177]: the chromatographic logP stood at 2.19. `Clc1cccc(-c2cnc(-c3cccnc3)s2)n1` [compound 178]: the chromatographic logP was determined as 2.43. With `Cc1nc(-c2cncnc2)sc1-c1ccnc(-c2ncccn2)n1` [compound 179], the chromatographic logP was determined as 1.06.

Take `c1cncc(-c2ncc(-c3cccc(-c4nccnn4)n3)s2)c1` [compound 180]: the chromatographic logP worked out at 1.43. As for `CN1CCOC(c2cccc(-c3cnc(-c4cccnc4)s3)n2)=N1` [compound 181], the chromatographic logP was determined as 1.82. For the molecule `c1cncc(-c2ncc(-c3cccc(-c4ncon4)n3)s2)c1` [compound 182], the chromatographic logP is 1.74.

Take `c1cncc(-c2ncc(-c3cccc(-c4nc[nH]n4)n3)s2)c1` [compound 183]: the chromatographic logP is 1.24. Turning to `CS(=O)(=O)c1cccc(-c2cnc(-c3cccnc3)s2)n1` [compound 184], the chromatographic logP amounted to 1.44. Still for that read-out and setting: under `Cc1cc(-c2sc(-c3cncc(F)c3)nc2C)nc(-c2ncccn2)n1` [compound 185] stands 1.68; under `Cc1nc(-c2cncc(F)c2)sc1-c1ccnc(-c2ncccn2)n1` [compound 186], 1.63; under `c1cncc(-c2ncc(-c3cccc(-n4cccn4)n3)s2)c1` [compound 187], 2.53. As for `Cc1cnn(-c2cccc(-c3cnc(-c4cccnc4)s3)n2)c1` [compound 188], the chromatographic logP was found to be 3.08. Turning to `Cc1ccn(-c2cccc(-c3cnc(-c4cccnc4)s3)n2)n1` [compound 189], the chromatographic logP stood at 2.85. On to `Cn1nc(-c2cccnc2)cc1-c1cccc(Br)n1` [compound 190], for which the chromatographic logP came to 1.67.

For `Cn1nc(-c2cccnc2)cc1-c1cccc(-c2ncccn2)n1` [compound 192], the chromatographic logP worked out at 1.12. On the same count and under the same terms, as for `CNc1nccc(-c2sc(-c3cccnc3)nc2C)n1` [compound 193], the figure is 1.41; as for `Cc1nc(-c2cccnc2)sc1-c1ccnc(N(C)C)n1` [compound 194], 2.15. For `Cc1nc(-c2cccnc2)sc1-c1ccn(-c2nc(Cl)ns2)n1` [compound 195], the chromatographic logP was found to be 3.76. In the case of `COCCNC(=S)n1ccc(-c2sc(-c3cccnc3)nc2C)n1` [compound 196], the chromatographic logP came out at 3.01. In the case of `Cc1cc(C)nc(-c2nc(-c3sc(-c4cccnc4)nc3C)cs2)n1` [compound 197], the chromatographic logP came out at 2.58. As to `c1cncc(-c2ncc(-c3cccc(-n4ccnc4)n3)s2)c1` [compound 199], the chromatographic logP was 0.93. As to `CN(C)c1cccc(-c2cnc(-c3cccnc3)s2)n1` [compound 200], the chromatographic logP turned out to be 2.83.

As for `Cc1nccn1-c1cccc(-c2cnc(-c3cccnc3)s2)n1` [compound 201], the chromatographic logP is 0.89. For the molecule `c1cncc(-c2ncc(-c3cccc(-n4cccc4)n3)s2)c1` [compound 202], the chromatographic logP is 3.13. Turning to `c1cncc(-c2ncc(-c3cccc(C4OCCCO4)n3)s2)c1` [compound 203], the chromatographic logP is 1.99.

As for `O=C1CCCCN1c1cccc(-c2cnc(-c3cccnc3)s2)n1` [compound 204], the chromatographic logP turned out to be 1.87. Turning to `c1cncc(-c2ncc(-c3cccc(C4OCCO4)n3)s2)c1` [compound 205], the chromatographic logP is 1.82. Same read-out and setting: under `O=C1CCCN1c1cccc(-c2cnc(-c3cccnc3)s2)n1` [compound 206] stands 2.11. `c1cncc(-c2ncc(-c3cnc(-c4cccnc4)s3)s2)c1` [compound 217]: the chromatographic logP was determined as 1.43. With `Cn1nc(-c2cccnc2)cc1-c1cccnc1` [compound 218], the chromatographic logP is 0.89. Regarding `Nc1cccc(-c2cnc(-c3cccnc3)s2)n1` [compound 219], the chromatographic logP came to 0.92. On to `CN(C)C(=O)c1cccc(-c2nnc(-c3cccnc3)s2)n1` [compound 221], for which the chromatographic logP amounted to 1.34. Take `CC(F)(F)c1ccc(-c2cnc(-c3cccnc3)s2)nc1` [compound 223]: the chromatographic logP is 2.46.

Take `CC(F)(F)c1cccc(-c2cnc(-c3cccnc3)s2)n1` [compound 224]: the chromatographic logP turned out to be 2.77. For the molecule `COC(OC)c1cccc(-c2cnc(-c3cccnc3)s2)n1` [compound 225], the chromatographic logP was 2.08. Regarding `Cn1nc(-c2cccnc2)cc1-c1cccnc1Cl` [compound 226], the chromatographic logP was 0.98.

Take `Cn1nc(-c2cccnc2)cc1-c1cncc(C#N)c1` [compound 227]: the chromatographic logP worked out at 0.89. Turning to `Cn1nc(-c2cccnc2)cc1-c1cncc(F)c1` [compound 228], the chromatographic logP is 0.89. For `CON(C)C(=O)c1csc(-c2sc(-c3cccnc3)nc2C)n1` [compound 229], the chromatographic logP amounted to 1.78. In the case of `Cc1nc(-c2cccnc2)sc1-c1nc(C(=O)NC(C)C2CC2)cs1` (stereo not drawn) [compound 233], the chromatographic logP was found to be 2.69. With `Cc1nc(-c2cccnc2)sc1-c1nc(C(=O)NC(C)(C)C)cs1` [compound 234], the chromatographic logP is 2.93.

As to `Cc1nc(-c2cccnc2)sc1-c1nc(C(=O)NCC(F)(F)C(F)F)cs1` [compound 235], the chromatographic logP came out at 2.38.

In the case of `Cc1nc(-c2cccnc2)sc1-c1nc(C(=O)N2CCCCC2)cs1` [compound 236], the chromatographic logP was found to be 2.38. `Cc1nc(-c2cccnc2)sc1-c1nc(C(=O)N2CCCC2)cs1` [compound 237]: the chromatographic logP came out at 2.05.

Staying with this series, now noted: reversed-phase HPLC column (C18), pH 3.4, values printed in the text of the preparation examples; formic acid method; read-out: logP (HCOOH).
As for `CC(=O)c1cc(-c2cccnc2)nn1C`, the chromatographic logP worked out at 0.61. Regarding `CN(C)/C=C/C(=O)c1cc(-c2cccnc2)nn1C`, the chromatographic logP worked out at 0.6. For the molecule `CC(=O)c1nnc(-c2cccnc2)s1` [1-(5-Pyridin-3-yl-[1,3,4]thiadiazol-2-yl)ethanone], the chromatographic logP was 1.16. Regarding `Cc1nc(-c2cccnc2)sc1-c1cccc(Cl)n1` [2-Chloro-6-(4-methyl-2-pyridin-3-ylthiazol-5-yl)pyridine], the chromatographic logP was determined as 2.66. For the molecule `CC(=O)c1sc(-c2cccnc2)nc1C` [3-(5-Acetyl-4-methylthiazol-2-yl)pyridinium chloride], the chromatographic logP is 1.48.

Regarding `Cc1nc(-c2cccnc2)sc1Br` [3-(5-Bromo-4-methylthiazol-2-yl)pyridine], the chromatographic logP came to 2.3.

As for `Brc1cccc(C2=NOCCO2)n1` [3-(6-Bromopyridin-2-yl)-5,6-dihydro-[1,4,2]dioxazine], the chromatographic logP worked out at 1.37.

Regarding `Cc1nc(-c2cccnc2)sc1C(=O)/C=C/N(C)C` [3-Dimethylamino-1-(4-methyl-2-pyridin-3-ylthiazol-5-yl)propenone], the chromatographic logP came to 1.35.

With `c1cncc(-c2nccs2)c1` [3-Thiazol-2-ylpyridine], the chromatographic logP worked out at 0.62. Take `c1cncc(-c2nncs2)c1` [3-[1,3,4]Thiadiazol-2-ylpyridine]: the chromatographic logP is 0.15. As to `Cc1nc(-c2cccnc2)sc1-c1cc[nH]n1` [3-[4-Methyl-5-(1H-pyrazol-3-yl)thiazol-2-yl]pyridine], the chromatographic logP amounted to 1.31. Still for that read-out and setting: under `Cc1nc(-c2cccnc2)sc1C(=O)NN(CCO)c1ncccn1` [4-Methyl-2-pyridin-3-ylthiazole-5-carboxylic acid N-(hydroxyethyl)-N-pyrimidin-2-ylhydrazide] stands 1.08.

Turning to `Cc1nc(-c2cccnc2)sc1-c1cccc(C#N)n1` [6-(4-Methyl-2-pyridin-3-ylthiazol-5-yl)pyridine-2-carbonitrile], the chromatographic logP is 2.11. Turning to `Cc1nc(-c2cccnc2)sc1-c1cccc(C(N)=S)n1` [6-(4-Methyl-2-pyridin-3-ylthiazol-5-yl)pyridine-2-carbothioamide], the chromatographic logP was determined as 2.13. Turning to `O=C(NO)c1cccc(Br)n1` [6-Bromopyridine-2-carboxylic acid hydroxyamide], the chromatographic logP was 0.69. `CN(C)/C=C/C(=O)c1nnc(-c2cccnc2)s1` [(3-Dimethylamino-1-(5-pyridin-3-yl-[1,3,4]thiadiazol-2-yl)propenone]: the chromatographic logP came out at 1.05.

As to `CCOC(=O)C(=O)NNC(=O)c1cccnc1` [Ethyl oxo-[N′-(pyridin-3-carbonyl)hydrazino]acetate], the chromatographic logP was -0.13.

Still in this series, the particulars now being: values given in the preparation examples; formic acid method.
For `CC(=O)c1sc(-c2cccnc2)nc1C` [1-(4-Methyl-2-pyridin-3-ylthiazol-5-yl)ethanone], the “logP (HCOOH)” value worked out at 1.5.
